# Reference: patent US20050239656A1, “Pyridine compounds or salts thereof and herbicides containing the same” (priority 2002, published 2005)
# System: corn
# Assay: Test Example 1: foliage treatment, upland pot test
# Format: in vivo, Zea mays L.
# Conditions: crop, active ingredient 1000 g/ha, observed 18th to 23rd day, 0 = non-treated, 100 = complete kill
# Method in brief: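 In this upland pot foliage test, corn plants at 2.1 to 3.2 leaf stages were sprayed by a small size sprayer. The spray was a conventionally formulated wettable powder or emulsifiable concentrate weighed to a set active ingredient amount, diluted in water at 500 L/ha, plus 0.1% (v/v) agricultural spreader. Visual assessment on days 18 to 23 gave growth controlling degree (%), where 0 equals untreated and 100 means complete kill.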
row,Compound,Growth controlling degree (%) Corn [%]
1,CC(C)C(c1cnccc1C(F)(F)F)N(C)C(=O)Cc1ccc(Br)cc1 (stereo not shown) [I-10],60

# System: tall morningglory
# Assay: Test Example 1: foliage treatment, upland pot test
# Format: in vivo, Ipomoea purpurea L.
# Conditions: active ingredient 1000 g/ha, observed 18th to 23rd day, 0 = non-treated, 100 = complete kill
# Excerpt: Upland field soil was put into a 1/170,000 ha pot, and seed of various plants were sown. Then, when the plants reached predetermined leaf stages ((1) barnyardgrass: 1.3 to 2.8 leaf stages, (2) crabgrass: 1.0 to 2.8 leaf stages, (3) green foxtail: 1.3 to 2.6 leaf stages, (4) redroot pigweed: 0.1 to 1.2 leaf stages, (5) prickly sida: 0.1 to 1.2 leaf stages, (6) velvetleaf: 0.1 to 1.2 leaf stages, (7) tall morningglory: 0.1 to 1.5 leaf stages, (8) rice: 1.2 to 2.6 leaf stages, (9) wheat: 1.3 to 2.4 leaf stages, (10) corn, 2.1 to 3.2 leaf stages, (11) soybean: 0.1 to 0.4 leaf stage), a wettable powder or emulsifiable concentrate having the compound of the present invention formulated in accordance with a usual formulation method, was weighed so that the active ingredient would be a predetermined amount, and diluted with water in an amount of 500 L/ha. To the diluted solution, 0.1% (v/v) of agricultural spreader was added. The herbicide thus adjusted was applied by a small size sprayer for foliage treatment. On the 18th to 23rd days after the application of the herbicide, the growth of the respective plants was visually observed, and the herbicidal effects were evaluated by the growth controlling degrees (%) ranging from 0 (equivalent to the non-treated plot) to 100 (complete kill), whereby the results shown in Table 3, were obtained.
row,Compound,Growth controlling degree (%) Tall morningglory [%]
1,CC(C)C(c1cnccc1C(F)(F)F)N(C)C(=O)Cc1ccc(Br)cc1 (stereo not shown) [I-10],95

# System: wheat
# Assay: Test Example 2: soil surface treatment, upland pot test
# Format: in vivo, Triticum spp.
# Conditions: active ingredient 1000 g/ha, observed 20th to 28th day
# Method in brief: (§1)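 Upland soil in pots of 1/170,000 ha is sown; on day 1 after sowing the formulated compound (wettable powder or emulsifiable concentrate, predetermined a.i. amount, water volume 1,500 L/ha) is applied to the soil surface with a small sprayer. Percent control is judged by eye 20–28 days later.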
row,Compound,Growth controlling degree (%) wheat [%]
1,CC(C)C(c1cnccc1C(F)(F)F)N(C)C(=O)Cc1ccc(Br)cc1 (stereo not shown) [I-10],20

# System: velvetleaf
# Assay: Test Example 1: foliage treatment, upland pot test
# Format: in vivo, Abutilon theophrasti MEDIC.
# Conditions: active ingredient 1000 g/ha, observed 18th to 23rd day, 0 = non-treated, 100 = complete kill
row,Compound,Growth controlling degree (%) Velvetleaf [%]
1,CC(C)C(c1cnccc1C(F)(F)F)N(C)C(=O)Cc1ccc(Br)cc1 (stereo not shown) [I-10],95

# System: rice (var. Nihonbare)
# Assay: Test Example 3: paddy pot test, transplanted rice
# Format: in vivo, Oryza sativa L.
# Conditions: active ingredient 500 g/ha, applied 4th day after transplantation, visually observed 21st day after application, 0 = non-treated, 100 = complete kill
# Method in brief: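 Rice (2-leaf stage) was transplanted 3 cm deep into puddled, leveled paddy soil under 3–4 cm flooding. On day 4 after transplanting, diluted wettable powder or emulsifiable concentrate was pipetted onto the water at a predetermined active-ingredient dose. Growth control (0 = untreated, 100 = complete kill) was scored visually 21 days later.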
row,Compound,Growth controlling degree (%) Rice [%]
1,CC(C)C(c1cnccc1C(F)(F)F)N(C)C(=O)Cc1ccc(Br)cc1 (stereo not shown) [I-10],10

# System: crabgrass
# Assay: Test Example 1: foliage treatment, upland pot test
# Format: in vivo, Digitaria sanguinalis L.
# Conditions: active ingredient 1000 g/ha, observed 18th to 23rd day, 0 = non-treated, 100 = complete kill
row,Compound,Growth controlling degree (%) Crabgrass [%]
1,CC(C)C(c1cnccc1C(F)(F)F)N(C)C(=O)Cc1ccc(Br)cc1 (stereo not shown) [I-10],95

# System: barnyardgrass
# Assay: Test Example 3: paddy pot test, application under submerged conditions
# Format: in vivo, Echinochloa crus-galli L.
# Conditions: active ingredient 500 g/ha; submerged application at 0.5 leaf stage; visually observed 14 days after application; 0 = non-treated, 100 = complete kill
# Method in brief: (§2)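 After sowing seeds and planting wapato tubers in flooded paddy soil, an aqueous dilution of the formulated compound was added to the 3–4 cm flood water at early leaf stage. Percent growth control relative to the untreated plot was assessed visually on day 14.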
row,Compound,Growth controlling degree (%) Barnyardgrass [%]
1,CC(C)C(c1cnccc1C(F)(F)F)N(C)C(=O)Cc1ccc(Br)cc1 (stereo not shown) [I-10],100

# System: corn
# Assay: Test Example 2: soil surface treatment, upland pot test
# Format: in vivo, Zea mays L.
# Conditions: active ingredient 1000 g/ha, observed 20th to 28th day
# Method in brief: as §1
row,Compound,Growth controlling degree (%) Corn [%]
1,CC(C)C(c1cnccc1C(F)(F)F)N(C)C(=O)Cc1ccc(Br)cc1 (stereo not shown) [I-10],10

# System: redroot pigweed
# Assay: as above
# Format: in vivo, Amaranthus retroflexus L.
# Conditions: active ingredient 1000 g/ha, observed 20th to 28th day
# Method in brief: as §1
row,Compound,Growth controlling degree (%) Redroot pigweed [%]
1,CC(C)C(c1cnccc1C(F)(F)F)N(C)C(=O)Cc1ccc(Br)cc1 (stereo not shown) [I-10],60

# System: soybean
# Assay: Test Example 1: foliage treatment, upland pot test
# Format: in vivo, Glycine max Merr.
# Conditions: crop, active ingredient 1000 g/ha, observed 18th to 23rd day, 0 = non-treated, 100 = complete kill
# Method in brief: (§3)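 Each plant species was sprayed once on its foliage, with wheat at 1.3–2.4, soybean at 0.1–0.4, barnyardgrass at 1.3–2.8 and rice at 1.2–2.6 leaves. Visual ratings of growth inhibition, 0 to 100%, followed 18–23 days later.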
row,Compound,Growth controlling degree (%) Soybean [%]
1,CC(C)C(c1cnccc1C(F)(F)F)N(C)C(=O)Cc1ccc(Br)cc1 (stereo not shown) [I-10],90

# System: green foxtail
# Assay: Test Example 2: soil surface treatment, upland pot test
# Format: in vivo, Setaria viridis L.
# Conditions: active ingredient 1000 g/ha, observed 20th to 28th day
# Method in brief: as §1
row,Compound,Growth controlling degree (%) Green foxtail [%]
1,CC(C)C(c1cnccc1C(F)(F)F)N(C)C(=O)Cc1ccc(Br)cc1 (stereo not shown) [I-10],100

# System: japanese ribbon wapato
# Assay: Test Example 3: paddy pot test, application under submerged conditions
# Format: in vivo, Sagittaria pygniaea
# Conditions: active ingredient 500 g/ha; submerged application at primary leaf stage; visually observed 14 days after application; 0 = non-treated, 100 = complete kill
# Method in brief: as §2
row,Compound,Growth controlling degree (%) Japanese ribbon wapato [%]
1,CC(C)C(c1cnccc1C(F)(F)F)N(C)C(=O)Cc1ccc(Br)cc1 (stereo not shown) [I-10],10

# System: wheat
# Assay: Test Example 1: foliage treatment, upland pot test
# Format: in vivo, Triticum spp.
# Conditions: crop, active ingredient 1000 g/ha, observed 18th to 23rd day, 0 = non-treated, 100 = complete kill
# Method in brief: as §3
row,Compound,Growth controlling degree (%) wheat [%]
1,CC(C)C(c1cnccc1C(F)(F)F)N(C)C(=O)Cc1ccc(Br)cc1 (stereo not shown) [I-10],30

# System: prickly sida
# Assay: Test Example 2: soil surface treatment, upland pot test
# Format: in vivo, Sida spinosa L.
# Conditions: active ingredient 1000 g/ha, observed 20th to 28th day
# Method in brief: as §1
row,Compound,Growth controlling degree (%) Prickly sida [%]
1,CC(C)C(c1cnccc1C(F)(F)F)N(C)C(=O)Cc1ccc(Br)cc1 (stereo not shown) [I-10],60

# System: japanese bulrush
# Assay: Test Example 3: paddy pot test, application under submerged conditions
# Format: in vivo, Scirpus juncoides
# Conditions: active ingredient 500 g/ha; submerged application at 0.5 leaf stage; visually observed 14 days after application; 0 = non-treated, 100 = complete kill
# Method in brief: as §2
row,Compound,Growth controlling degree (%) Japanese bulrush [%]
1,CC(C)C(c1cnccc1C(F)(F)F)N(C)C(=O)Cc1ccc(Br)cc1 (stereo not shown) [I-10],98

# System: barnyardgrass
# Assay: Test Example 1: foliage treatment, upland pot test
# Format: in vivo, Echinochloa crus-galli L.
# Conditions: active ingredient 1000 g/ha, observed 18th to 23rd day, 0 = non-treated, 100 = complete kill
# Method in brief: as §3
row,Compound,Growth controlling degree (%) Barnyardgrass [%]
1,CC(C)C(c1cnccc1C(F)(F)F)N(C)C(=O)Cc1ccc(Br)cc1 (stereo not shown) [I-10],90

# System: velvetleaf
# Assay: Test Example 2: soil surface treatment, upland pot test
# Format: in vivo, Abutilon theophrasti MEDIC.
# Conditions: active ingredient 1000 g/ha, observed 20th to 28th day
# Method in brief: as §1
row,Compound,Growth controlling degree (%) Velvetleaf [%]
1,CC(C)C(c1cnccc1C(F)(F)F)N(C)C(=O)Cc1ccc(Br)cc1 (stereo not shown) [I-10],60

# System: rice
# Assay: as above
# Format: in vivo, Oryza sativa L.
# Conditions: active ingredient 1000 g/ha, observed 20th to 28th day
# Method in brief: as §1
row,Compound,Growth controlling degree (%) Rice [%]
1,CC(C)C(c1cnccc1C(F)(F)F)N(C)C(=O)Cc1ccc(Br)cc1 (stereo not shown) [I-10],30

# System: barnyardgrass
# Assay: as above
# Format: in vivo, Echinochloa crus-galli L.
# Conditions: active ingredient 1000 g/ha, observed 20th to 28th day, 0 = non-treated, 100 = complete kill
# Method in brief: as §1
row,Compound,Growth controlling degree (%) Barnyardgrass [%]
1,CC(C)C(c1cnccc1C(F)(F)F)N(C)C(=O)Cc1ccc(Br)cc1 (stereo not shown) [I-10],100

# System: rice
# Assay: Test Example 1: foliage treatment, upland pot test
# Format: in vivo, Oryza sativa L.
# Conditions: crop, active ingredient 1000 g/ha, observed 18th to 23rd day, 0 = non-treated, 100 = complete kill
# Method in brief: as §3
row,Compound,Growth controlling degree (%) Rice [%]
1,CC(C)C(c1cnccc1C(F)(F)F)N(C)C(=O)Cc1ccc(Br)cc1 (stereo not shown) [I-10],30

# System: green foxtail
# Assay: Test Example 1: foliage treatment, upland pot test
# Format: in vivo, Setaria viridis L.
# Conditions: active ingredient 1000 g/ha, observed 18th to 23rd day, 0 = non-treated, 100 = complete kill
row,Compound,Growth controlling degree (%) Green foxtail [%]
1,CC(C)C(c1cnccc1C(F)(F)F)N(C)C(=O)Cc1ccc(Br)cc1 (stereo not shown) [I-10],90

# System: redroot pigweed
# Assay: Test Example 1: foliage treatment, upland pot test
# Format: in vivo, Amaranthus retroflexus L.
# Conditions: active ingredient 1000 g/ha, observed 18th to 23rd day, 0 = non-treated, 100 = complete kill
row,Compound,Growth controlling degree (%) Redroot pigweed [%]
1,CC(C)C(c1cnccc1C(F)(F)F)N(C)C(=O)Cc1ccc(Br)cc1 (stereo not shown) [I-10],90

# System: prickly sida
# Assay: Test Example 1: foliage treatment, upland pot test
# Format: in vivo, Sida spinosa L.
# Conditions: active ingredient 1000 g/ha, observed 18th to 23rd day, 0 = non-treated, 100 = complete kill
row,Compound,Growth controlling degree (%) Prickly sida [%]
1,CC(C)C(c1cnccc1C(F)(F)F)N(C)C(=O)Cc1ccc(Br)cc1 (stereo not shown) [I-10],90

# System: crabgrass
# Assay: Test Example 2: soil surface treatment, upland pot test
# Format: in vivo, Digitaria sanguinalis L.
# Conditions: active ingredient 1000 g/ha, observed 20th to 28th day
# Method in brief: as §1
row,Compound,Growth controlling degree (%) Crabgrass [%]
1,CC(C)C(c1cnccc1C(F)(F)F)N(C)C(=O)Cc1ccc(Br)cc1 (stereo not shown) [I-10],100

# System: soybean
# Assay: as above
# Format: in vivo, Glycine max Merr.
# Conditions: active ingredient 1000 g/ha, observed 20th to 28th day
# Method in brief: as §1
row,Compound,Growth controlling degree (%) Soyabean [%]
1,CC(C)C(c1cnccc1C(F)(F)F)N(C)C(=O)Cc1ccc(Br)cc1 (stereo not shown) [I-10],30
